The test system of assay [1] is PC-12. Kind of assay: Neuroprotective activity in rat PC12 cells assessed as protection against H2O2-induced cell damage at 25 ug/ml after 1 hr by MTT assay relative to control. It counts as functional. Background: Tetrazolium assays rely on reduction of a dye to a coloured formazan, in cell work by metabolically active cells.
In assay [2] the test system is PC-12. Kind of assay: Neuroprotective activity in rat PC12 cells assessed as protection against H2O2-induced cell damage at 12.5 ug/ml after 1 hr by MTT assay relative to control. It is filed as functional.

As to `O=c1c2c(oc3cc(O)c(-c4cc(O)c5oc6cc(O)cc(O)c6c(=O)c5c4O)c(O)c13)[C@H](O)CC[C@@H]2O[C@@H]1O[C@H](CO)[C@@H](O)[C@H](O)[C@H]1O` [PUNICEASIDE B], the Activity is listed as 98.1% in the assay on PC-12 [1] and 75.1% in the assay with PC-12 [2].
Consider `O=c1c2c(O)c(-c3cc(O)c4oc5cc(O)cc(O)c5c(=O)c4c3O)c(O)cc2oc2c(O)ccc(O[C@@H]3O[C@H](CO)[C@@H](O)[C@H](O)[C@H]3O)c12` [swertiabisxanthone I], for which the results for the Activity in the assay on PC-12 [1] and in the assay with PC-12 [2] were 123% and 89.1%, respectively.
With `O=c1c2cc(O)c(O)cc2oc2c(-c3cc(O)c4oc5cc(O)cc(O)c5c(=O)c4c3O)c(O)c([C@@H]3O[C@H](CO)[C@@H](O)[C@H](O)[C@H]3O)c(O)c12`, the values for the Activity in the assay on PC-12 [1] and with PC-12 [2] were 157.8% and 95.5%, respectively.
Regarding `CC1=NN(c2ccccc2)C(=O)C1` [EDARAVONE], the Activity was 86.9% with PC-12 [1] and 74.3% in the assay with PC-12 [2].

The values above are taken from ChEMBL document CHEMBL1212903, “Neuroprotective xanthone glycosides from Swertia punicea” (2010).
